From patent US20240101548A1, “HYDROXAMATE COMPOUND, PREPARATION METHOD THEREFOR AND APPLICATION THEREOF” (SHENZHEN CHIPSCREEN BIOSCIENCES CO., LTD., priority 2020, published 2024) come the findings set out here.

Read-outs that look alike come from different tables or passages of the source.

What all share (format): cell-based, human
In assay [1] the test system is EPO-induced JAK2 signal pathway. Put plainly: EPO-induced proliferation of UT-7 cells (JAK2 signal). The settings on record: Homo sapiens, UT7; UT-7 cell proliferation, EPO 10 ng/mL, 72 hours; read-out: Inhibition activity IC50 on EPO-induced JAK2 signal pathway. The procedure, abridged:
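UT-7 cells (15000/well) stimulated with 10 ng/mL human recombinant EPO plus compound at final 0, 100, 1000 or 10000 nM, 72 h at 37° C., 5% CO2. Proliferation by alamarBlue fluorescence (Ex530/Em590); inhibition normalised to no-cytokine/no-compound (0) and EPO-only (100) wells, […] derived from dose-inhibition.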

In assay [2] the test system is IL-10-induced JAK1/TYK2 signal pathway. Put plainly: IL-10-induced JAK1/TYK2 signal pathway STAT3-Luc reporter gene assay in U2OS cells. The settings on record: Homo sapiens, U2OS cells, STAT3-Luc reporter, IL-10 10 ng/mL, read-out: Half inhibition dose (IC50) on IL-10-induced JAK1/TYK2 signal pathway. The procedure, abridged: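 U2OS cells co-transfected with IL-10R1-EGFP and STAT3-luciferase reporter plasmids; after 24 h, compound added (0–300 nM) for 6 h before 10 ng/mL human IL-10, then 24 h culture. Luciferase signal normalised to GFP for transfection efficiency; IC50 from inhibition rates.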

In assay [3] the test system is IL-2-induced JAK1/JAK3 signal pathway. The experiment in a line: IL-2-induced proliferation of KHYG-1 cells (JAK1/JAK3 signal). The settings on record: Homo sapiens, read-out: Inhibition activity IC50 on IL-2-induced JAK1/JAK3 signal pathway. The procedure, abridged: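 KHYG-1 NK lymphoma cells were cultured with IL-2 and test compound at various doses for 72 h at 37 °C and 5% CO2, and proliferation was read with alamarBlue fluorescence. Inhibition was normalized to wells without compound or cytokine (0%) and IL-2 wells without compound (100%), and C50 was derived from the dose-inhibition data.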

Where [4] appears, read: KHYG-1 cell proliferation, IL-2 10 ng/mL, 72 hours.

Regarding `CCONC(=O)c1cnc(Nc2ccn(C)n2)cc1Nc1ccc(C2CC2)cc1N(C)S(C)(=O)=O` [Example 160, 4-((4-cyclopropyl-2-(N-methylmethanesulfonamido)phenyl)amino)-N-ethoxy-6-((1-methyl-1H-pyrazol-3-yl)amino)nicotinamide], the IC50 is greater than 10 µM in assay [1], 0.000442 µM in assay [2] (U2OS) and greater than 10 µM in assay [3] (setting [4]).

With `C#Cc1ccc(Nc2cc(Nc3ccccn3)ncc2C(=O)NOCC)c(N(C)S(C)(=O)=O)c1` [Example 162, N-ethoxy-4-((4-ethynyl-2-(N-methylmethanesulfonamido)phenyl)amino)-6-(pyridin-2-ylamino)nicotinamide], the IC50 in assay [1] was greater than 10 µM; in assay [2] (U2OS), 0.000438 µM; in assay [3] (setting [4]), greater than 10 µM.

As for `CCONC(=O)c1cnc(NC(=O)C2CC2)cc1Nc1cccc(-c2ncn(C)n2)c1OC` [Example 166, 6-(cyclopropylcarboxamido)-N-ethoxy-4-((2-methoxy-3-(1-methyl-1H-1,2,4-triazol-3-yl)phenyl)amino)nicotinamide], the figures for the IC50 in assay [1], in assay [2] (U2OS) and in assay [3] (setting [4]) were greater than 10 µM, 0.00151 µM and greater than 10 µM, respectively.

As for `CCONC(=O)c1cnc(Nc2cnccn2)cc1Nc1cc(F)c(C2CC2)cc1N(C)S(C)(=O)=O` [Example 167, 4-((4-cyclopropyl-5-fluoro-2-(N-methylmethanesulfonamido)phenyl)amino)-N-ethoxy-6-(pyrazin-2-ylamino)nicotinamide], the IC50 was greater than 10 µM in assay [1], 0.00151 µM in assay [2] (U2OS) and greater than 10 µM in assay [3] (setting [4]).

In the case of `CCONC(=O)c1cnc(Nc2nc(C)cs2)cc1Nc1cc(F)c(C2CC2)cc1N(C)S(C)(=O)=O` [Example 170, 4-((4-cyclopropyl-5-fluoro-2-(N-methylmethanesulfonamido)phenyl)amino)-N-ethoxy-6-((4-methylthiazol-2-yl)amino)nicotinamide], the IC50 is greater than 10 µM in assay [1], 0.0015 µM in assay [2] (U2OS) and greater than 10 µM in assay [3] (setting [4]).

With `CCONC(=O)c1cnc(Nc2ccn(C)n2)cc1Nc1cc(F)c(C2CC2)cc1N(C)S(C)(=O)=O` [Example 171, 4-((4-cyclopropyl-5-fluoro-2-(N-methylmethanesulfonamido)phenyl)amino)-N-ethoxy-6-((1-methyl-1H-pyrazol-3-yl)amino)nicotinamide], the IC50 in assay [1] was greater than 10 µM; in assay [2] (U2OS), 0.00154 µM; in assay [3] (setting [4]) it was greater than 10 µM.

As for `CCONC(=O)c1cnc(Nc2cc(C)nc(C)n2)cc1Nc1ccccc1N(C)S(=O)(=O)C1CC1` [Example 173, 6-((2,6-dimethylpyrimidin-4-yl)amino)-N-ethoxy-4-((2-(N-methylcyclopropylsulfonamido)phenyl)amino)nicotinamide], the IC50 in assay [1] was greater than 10 µM; in assay [2], 0.000424 µM; in assay [3] (KHYG-1, 72 h), greater than 10 µM.

Consider `CCONC(=O)c1cnc(Nc2cc(C)nc(C)n2)cc1Nc1ccc(OC)cc1N(C)S(=O)(=O)C1CC1` [Example 174, 6-((2,6-dimethylpyrimidin-4-yl)amino)-N-ethoxy-4-((4-methoxy-2-(N-methylcyclopropylsulfonamido)phenyl)amino)nicotinamide], for which the IC50 in assay [1] is greater than 10 µM; in assay [2] (U2OS) it was 0.000784 µM; in assay [3] (setting [4]), greater than 10 µM.

As to `CCONC(=O)c1cnc(Nc2cc(C)nc(C)n2)cc1Nc1ccc(C)cc1N(C)S(=O)(=O)C1CC1` [Example 175], the figures for the IC50 in assay [1], in assay [2] (U2OS) and in assay [3] (setting [4]) were greater than 10 µM, 0.000839 µM and greater than 10 µM, respectively.

With `CCONC(=O)c1cnc(Nc2ccc(C)nn2)cc1Nc1cc(F)c(C2CC2)cc1N(C)S(C)(=O)=O` [Example 176, 4-((4-cyclopropyl-5-fluoro-2-(N-methylmethanesulfonamido)phenyl)amino)-N-ethoxy-6-((6-methylpyridazin-3-yl)amino)nicotinamide], the IC50 in assay [1] was greater than 10 µM; in assay [2] (U2OS), 0.00232 µM; in assay [3] (setting [4]), greater than 10 µM.

`CCONC(=O)c1cnc(Nc2cc(C)nc(C)n2)cc1Nc1ccc(C#N)cc1N(C)S(C)(=O)=O` [Example 177]: the values for the IC50 in assay [1], in assay [2] (U2OS) and in assay [3] (setting [4]) were greater than 10 µM, 0.0016 µM and greater than 10 µM, respectively.
